In PubChem BioAssay (NCI):
“And” between values parts separate entries of the source, which are not always exact repeats. Identical values can stand only once.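 Growth conditions: 96-well plates. Treatment: test compound, 48 hours, 5 concentrations. Analysis: linear interpolation between bracketing concentrations; unreached endpoints set to highest concentration. Abbreviation: GI50, concentration required for 50% inhibition of growth. TGI: total growth inhibition.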

Legend:
Assay in all cases: NCI anticancer screen, dose series, 48 h
RXF-631 renal = tested on: RXF-631 renal
MDA-N = tested on: MDA-N
MCF7 breast = tested on: MCF7 breast
MDA-MB-435 = tested on: MDA-MB-435
LXFL 529 NSCLC = tested on: LXFL 529 NSCLC
HS 578T breast = tested on: HS 578T breast
NCI/ADR-RES ovarian = tested on: NCI/ADR-RES ovarian

| Structure (SMILES) | TGI (RXF-631 renal) | TGI (LXFL 529 NSCLC) | further results |
| --- | --- | --- | --- |
| COc1ccc(/C=C2/CSC/C(=C/c3ccc(OC)c(OC)c3)C2=O)cc1OC | 6.41 µM | 10.8 µM | TGI (MDA-N): 8.89 µM; TGI (MCF7 breast): > 100 µM; TGI (MDA-MB-435): > 100 µM |
| C[C@H]1CCC2C(OC(=O)[C@@H]2CN(C)C)[C@]2(C)C(=O)C=CC12O (some centres not stated) | 3.11 µM | 12.4 µM | TGI (HS 578T breast): > 100 µM; TGI (MDA-N): 13.3 µM; TGI (MCF7 breast): 24.5 µM; TGI (MDA-MB-435): 22.4 µM |
| C=CCCC(=O)CC(=O)OCc1ccccc1 | > 100 µM | > 100 µM | – |
| CCN1CCC(O)(/C=C/c2ccccc2)C(C(=O)/C=C/c2ccccc2)C1 (configuration not stated) | 15 µM | 3.56 µM | – |
| COC(=O)C#CC(N)=O | > 100 µM | > 100 µM | – |
| C=CCO[C@H]1CC[C@@]2(C)C(CC[C@]3(C)C2CC=C2[C@@H]4[C@@H](C)C(C)CC[C@]4(C(=O)O)CCC23C)C1(C)C (some centres not stated) | 28.9 µM | 26.9 µM | – |
| CC1=C2C3OC(=O)C(C)C3C(O)C[C@@]2(C)C(=O)CC1 (some centres not stated) | > 100 µM | > 100 µM | – |
| CCOC(=O)CC(C)C1(C=O)CCCCC1=O (configuration not stated) | > 100 µM | > 100 µM | – |
| CN1C/C(=C\c2ccc(C(=O)O)cc2)C(=O)/C(=C/c2ccc(C(=O)O)cc2)C1 | > 100 µM | > 100 µM | – |
| O=C1C(=Cc2ccc(F)cc2)C(=O)c2ccccc21 | > 100 µM | > 100 µM | – |
| COC(=O)C(=O)C(C#N)c1c(Cl)cccc1Cl (configuration not stated) | > 100 µM | > 100 µM | – |
| N#CC(C#N)C(c1ccccc1)c1ccccc1 | > 100 µM | > 100 µM | – |
| COC(=O)Nc1nc2ccc(C(=O)c3cccs3)cc2[nH]1 | > 61.8 µM | 18.6 µM | GI50 (HS 578T breast): 0.0244 µM and 0.0882 µM; TGI (HS 578T breast): 50.9 µM and > 100 µM; TGI (MDA-N): 2.57 µM; GI50 (MCF7 breast): 0.0618 µM; TGI (MCF7 breast): 46.2 µM and > 100 µM; GI50 (MDA-MB-435): 0.029 µM; TGI (MDA-MB-435): 0.158 µM and 0.102 µM; GI50 (NCI/ADR-RES ovarian): 0.0388 µM and 0.0664 µM; TGI (NCI/ADR-RES ovarian): > 100 µM |
